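Cultured in 96-well plates, cells were exposed to test compound for 48 hours across five concentrations. GI50 = concentration required for 50% inhibition of growth.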 Calls of active or inactive are those of the source. No stated cut-off is given here; in the data, active = GI50 up to about 1.1 µM and inactive = higher.

Test systems include BT-549; CAKI-1; DU-145; EKVX; HCC 2998; HL-60; HOP-92; Hs-578T; NCI-H522; NCI/ADR-RES; OVCAR-4; OVCAR-8; RPMI-8226; SF-268; SN12C; SW-620; T47D; TK-10; UO-31.
Holding throughout (test): growth of human tumour cells (NCI), 48 h

As to `Cc1ccsc1C(=S)Nc1ccc(Cl)c(C(=O)OC(C(C)C)C(C)C)c1`, the GI50 with BT-549 was 3.38 µM (inactive); with CAKI-1 it was 19.5 µM (inactive); in the assay with DU-145 it was 33 µM (inactive); in the assay on EKVX, 23.2 µM (inactive); in the assay with HCC 2998, 16.1 µM (inactive); in the assay on HL-60 it was 11.4 µM (inactive). Besides, the GI50 in the assay with HOP-92 is 16.3 µM (inactive); in the assay with Hs-578T it was 39.4 µM (inactive); in the assay with NCI-H522, 11.4 µM (inactive); in the assay with NCI/ADR-RES it was 13.6 µM (inactive); with OVCAR-4, 29.1 µM (inactive); in the assay with OVCAR-8 it was 21.3 µM (inactive). In addition, the GI50 was 10.6 µM (inactive) in the assay with RPMI-8226; 40.8 µM (inactive) with SF-268; 24.8 µM (inactive) in the assay on SN12C; 18.9 µM (inactive) with SW-620; 6.9 µM (inactive) in the assay with T47D; 38.1 µM (inactive) with TK-10. Also, the GI50 with UO-31 was 13.1 µM (inactive).

`CC12CCC(C(=O)n3c1nc1ccccc13)C(C)(C)O2` (stereo not given): the GI50 in the assay on BT-549, in the assay with CAKI-1, in the assay on DU-145, in the assay with EKVX, in the assay with HCC 2998 and in the assay on HL-60 was > 100 µM (inactive) each time. Further, the GI50 was > 100 µM (inactive) in the assay on HOP-92; 16.3 µM (inactive) with Hs-578T; 47.6 µM (inactive) with NCI-H522; > 100 µM (inactive) in the assay with NCI/ADR-RES; > 100 µM (inactive) with OVCAR-4; > 100 µM (inactive) in the assay on OVCAR-8. Besides, the GI50 in the assay with RPMI-8226, with SF-268, in the assay with SN12C, with SW-620, in the assay with T47D and in the assay on TK-10 was > 100 µM (inactive) in each case. The GI50 with UO-31 was 75.3 µM (inactive).

`CSc1nc(=O)c2nc(-c3cccs3)c(-c3cccs3)nc2n1C`: the GI50 in the assay on BT-549 is 34.5 µM (inactive); in the assay with CAKI-1, 39.6 µM (inactive); in the assay on DU-145 it was 34.3 µM (inactive); in the assay with EKVX, 27.6 µM (inactive); in the assay with HCC 2998 it was > 100 µM (inactive); in the assay on HL-60, 96.6 µM (inactive). Further, the GI50 was 28.8 µM (inactive) in the assay on HOP-92; 35.6 µM (inactive) in the assay with Hs-578T; 31 µM (inactive) in the assay on NCI-H522; 50.2 µM (inactive) with NCI/ADR-RES; 30.7 µM (inactive) in the assay on OVCAR-4; 29.3 µM (inactive) with OVCAR-8. The GI50 is > 100 µM (inactive) in the assay on RPMI-8226; 37.2 µM (inactive) in the assay with SF-268; 43.6 µM (inactive) in the assay with SN12C; > 100 µM (inactive) in the assay with SW-620; 18.7 µM (inactive) with T47D; > 100 µM (inactive) in the assay on TK-10. Moreover, in the assay on UO-31, the GI50 is 33.7 µM (inactive).

As for `CC1CNC(c2ccc(CN3CCC(C4CCN(Cc5ccc(C6=NC(C)CN6)cc5)CC4)CC3)cc2)=N1` (stereo not given), the GI50 is > 100 µM (inactive) in the assay with BT-549; 38.8 µM (inactive) in the assay on CAKI-1; 16.2 µM (inactive) in the assay with DU-145; 21.7 µM (inactive) in the assay with EKVX; 14.6 µM (inactive) with HCC 2998; 36.1 µM (inactive) in the assay on HL-60. The GI50 in the assay with HOP-92 was 75.7 µM (inactive); in the assay on Hs-578T, 18.6 µM (inactive); with NCI-H522, 15 µM (inactive); in the assay with NCI/ADR-RES it was 34.4 µM (inactive); in the assay with OVCAR-4, 16.8 µM (inactive); with OVCAR-8 it was 29.6 µM (inactive). Moreover, the GI50 with RPMI-8226 was 19.5 µM (inactive); in the assay on SF-268, 22.4 µM (inactive); in the assay with SN12C it was 20.1 µM (inactive); in the assay with SW-620, 18.2 µM (inactive); in the assay on T47D, 19.5 µM (inactive); with TK-10, 22.4 µM (inactive). Further, the GI50 in the assay on UO-31 is 26.5 µM (inactive).

On to `CC(C)OC(=O)C(NC(=O)C(CC(=O)OCc1ccccc1)NC(=O)OCc1ccccc1)NC(=O)C1C(C)(C)CCC1(C)C` (stereo not given), for which the GI50 was 17.4 µM (inactive) in the assay on BT-549; 9.98 µM (inactive) with CAKI-1; 22.9 µM (inactive) in the assay with DU-145; 3.85 µM (inactive) with EKVX; 24.9 µM (inactive) in the assay with HCC 2998; 3.76 µM (inactive) in the assay with HL-60. In addition, the GI50 in the assay with HOP-92 was 11 µM (inactive); with Hs-578T, 6.98 µM (inactive); in the assay on NCI-H522 it was 11.6 µM (inactive); in the assay on NCI/ADR-RES, 4.98 µM (inactive); in the assay on OVCAR-4, 3.55 µM (inactive); with OVCAR-8, 2 µM (inactive). Moreover, the GI50 with RPMI-8226 is 7.5 µM (inactive); in the assay with SF-268, 15 µM (inactive); in the assay with SN12C it was 3.84 µM (inactive); with SW-620, 3.23 µM (inactive); in the assay with T47D, 26.5 µM (inactive); in the assay with TK-10 it was 18.8 µM (inactive). In addition, the GI50 in the assay on UO-31 is 4.84 µM (inactive).

In the case of `Cn1c2ccccc2n2c(N=O)c(-c3ccccc3)nc12`, the GI50 was 27.6 µM (inactive) with BT-549; 39.7 µM (inactive) with CAKI-1; 23.7 µM (inactive) with DU-145; 19.4 µM (inactive) with EKVX; 11.7 µM (inactive) in the assay with HCC 2998; 92.3 µM (inactive) in the assay with HL-60. For the same compound, the GI50 in the assay on HOP-92 is 84.3 µM (inactive); in the assay on Hs-578T, 70.3 µM (inactive); with NCI-H522 it was 57.5 µM (inactive); in the assay on NCI/ADR-RES, 18.4 µM (inactive); in the assay on OVCAR-4, 62.4 µM (inactive); with OVCAR-8, > 100 µM (inactive). The GI50 in the assay with RPMI-8226 is 90.8 µM (inactive); in the assay on SF-268, > 100 µM (inactive); with SN12C, 69.2 µM (inactive); in the assay on SW-620 it was 72.8 µM (inactive); in the assay on T47D, 95.9 µM (inactive); in the assay with TK-10 it was 51.8 µM (inactive). In addition, the GI50 in the assay with UO-31 was 32.5 µM (inactive).

For `O=C1CCCC1CN1CCCC1` (stereo not given), the GI50 in the assay on BT-549 is 1.56 µM (inactive); in the assay with CAKI-1, 0.348 µM (active); with DU-145, 30.5 µM (inactive); with EKVX, 18.1 µM (inactive); in the assay on HCC 2998, > 45.2 µM (inactive); in the assay with HL-60 it was 0.367 µM (active). The GI50 with HOP-92 is 6.56 µM (inactive); in the assay with Hs-578T, 22.2 µM (inactive); in the assay on NCI-H522 it was < 0.0275 µM (active); with NCI/ADR-RES it was 15.7 µM (inactive); with OVCAR-4, 1.93 µM (inactive); in the assay with OVCAR-8, 17.3 µM (inactive). For the same compound, the GI50 in the assay with RPMI-8226 is 0.431 µM (active); in the assay with SF-268, 21.6 µM (inactive); in the assay with SN12C, 17.7 µM (inactive); in the assay with SW-620 it was 5.24 µM (inactive); in the assay with T47D, 2.75 µM (inactive); in the assay on TK-10, 12.5 µM (inactive). The GI50 in the assay on UO-31 was 7.31 µM (inactive).

Regarding `O=C(O)[C@H]1NC[C@H]2C(Br)=NO[C@@H]12`, the GI50 in the assay on BT-549, with CAKI-1, in the assay on DU-145, in the assay with EKVX, with HCC 2998 and in the assay on HL-60 was > 100 µM (inactive) throughout. For the same compound, the GI50 in the assay on HOP-92, with Hs-578T, in the assay on NCI-H522, in the assay with NCI/ADR-RES, in the assay on OVCAR-4 and in the assay on OVCAR-8 was > 100 µM (inactive) each time. Further, the GI50 in the assay with RPMI-8226, with SF-268, in the assay on SN12C, in the assay with SW-620, in the assay on T47D and in the assay on TK-10 was > 100 µM (inactive) each time. The GI50 in the assay with UO-31 is > 100 µM (inactive).

Consider `COc1cc(/C=C/C(=O)O)ccc1OS(=O)(=O)O`, for which the GI50 in the assay on BT-549, with CAKI-1, in the assay with DU-145, in the assay on EKVX, with HCC 2998 and in the assay on HL-60 was > 100 µM (inactive) throughout. Also, the GI50 with HOP-92, in the assay with Hs-578T, with NCI-H522, in the assay with NCI/ADR-RES, in the assay with OVCAR-4 and in the assay on OVCAR-8 was > 100 µM (inactive) in each case. Moreover, the GI50 with RPMI-8226, in the assay with SF-268, in the assay with SN12C, with SW-620, in the assay with T47D and in the assay with TK-10 was > 100 µM (inactive) each time. The GI50 with UO-31 is > 100 µM (inactive).

With `COc1cc2oc(-c3ccc(O)cc3)cc(=O)c2c(OC)c1O`, the GI50 in the assay with BT-549 is 67.9 µM (inactive); in the assay on CAKI-1 it was > 100 µM (inactive); with DU-145, 94.8 µM (inactive); in the assay with EKVX, > 100 µM (inactive); with HCC 2998, 96.8 µM (inactive); in the assay on HL-60, 21.2 µM (inactive). Further, the GI50 is 27.9 µM (inactive) in the assay with HOP-92; 58.5 µM (inactive) in the assay on Hs-578T; 29.8 µM (inactive) with NCI-H522; > 100 µM (inactive) in the assay on NCI/ADR-RES; > 100 µM (inactive) in the assay with OVCAR-4; 49.7 µM (inactive) in the assay on OVCAR-8. Further, the GI50 in the assay with RPMI-8226 is 89.9 µM (inactive); in the assay with SF-268, 37.8 µM (inactive); in the assay on SN12C it was 68.7 µM (inactive); in the assay with SW-620 it was > 100 µM (inactive); with T47D, 6.41 µM (inactive); in the assay on TK-10, 51.4 µM (inactive). The GI50 with UO-31 was 33.2 µM (inactive).

These data come from ChEMBL document CHEMBL1201862, “PubChem BioAssay data set” (2004).
